According to patent US20140057884A1, “PHARMACEUTICAL COMPOSITION FOR PREVENTING OR TREATING LIVER CANCER COMPRISING STIGMASTEROL AND 5 BETA-HYDROXYSITOSTANOL ISOLATED FROM NAVICULA INCERTA” (PUKYONG NATIONAL UNIVERSITY INDUSTRY-UNIVERSITY CO, priority 2012, published 2014):
Read-outs that look alike come from different tables or passages of the source.

Key:
Assay type in all cases: cell-based, human
MTT cell viability assay = conditions: human
Method: (§1) Cell viability was measured using MTT [3-(4,5-dimethylthiazol-2-yl)-2,5-diphenyltetrazolium bromide] assay utilizing […] MTT is reduced to purple formazan by the action of mitochondrial dehydrogenase which has viability only in living cells.
(§2) The HepG2 cells were grown in 96-well plates at a density of 2×10^4 cells/well. After 24 h, cells were treated with different concentrations ([…], 20 μM) of stigmasterol and 5β-hydroxysitostanol. After incubation for 24 h, the cells were incubated with 100 μL of MTT (1 mg/mL) for 4 h. Finally, DMSO was added so that the amount of formazan crystal was determined by measuring the absorbance at 550 nm using a multidetection microplate reader.

HepG2 cells [1] = assay: MTT cell viability assay; conditions: for cell viability with increasing concentrations: HepG2 cells, 5-20 μM, 24 h
Method: as §1, §2

HepG2 cells [2] = assay: Observation of morphological changes of the cells (light microscope; fluorescence microscope after Hoechst 33342 staining); conditions: 24 h; for shape of the attached HepG2 cells / number of attached cells (living cells): light microscope; for nuclei of the attached HepG2 cells: increasing concentrations (5, 10, 20 μM), Hoechst 33342, fluorescence microscope; for number of attached cells (living cells): increasing doses
Method: HepG2 ells were grown in 12-well plates at a density of 2×10^4 cells/well. After overnight incubation, cells were treated with different concentrations ([…], 20 μM) of stigmasterol and 5β-hydroxysitostanol and incubated for another 24 h. The cells were washed with PBS. After washing, 4% (v/v) formaldehyde solution was dissolved in PBS and added to the plate, and left for 1 h at room temperature. The fixed cells were detected by a light microscope.
Further, the HepG2 cells were grown in 12-well plates at a density of 2×10^4 cells/well. After overnight incubation, cells were treated with different concentrations (5 μM, 10 μM, 20 μM) of stigmasterol and 5β-hydroxysitostanol and incubated for another 24 h. The cells were then washed with PBS. After washing, 4% (v/v) formaldehyde solution was dissolved in PBS and added to the plate, and left for 1 h at room temperature so that cells were fixated. The fixed cells were stained with staining dye, Bisbenzimide Hoechst 33342 and left for 1 h at room temperature. The stained cells were observed under fluorescence microscope.

HepG2 cells [3] = assay: Cell cycle analysis (PI staining, FACS); conditions: for G2/M phase of the cell cycle as the concentration increased: HepG2 cells, 5, 10, 20 μM; for G2/M phase of the cell cycle: HepG2 cells, highest concentration (20 μM)
Method: The HepG2 cells were cultured in 6 cm^2 dishes treated with different concentrations (5 μM, 10 μM, 20 μM) of stigmasterol and 5β-hydroxysitostanol. The cells were stained with propidium iodide (PI), and the cell cycle was analyzed by measuring the amount of DNA with FACS.

HepG2 cells [4] = assay: RT-PCR analysis of mRNA expression of apoptosis-related genes
Method: HepG2 cells treated with stigmasterol and 5β-hydroxysitostanol were treated with TRIzol® reagent were transferred to microtubes at each concentration. 200 μl, of chloroform was added to each tube and microtubes were centrifuged at 12,000×g for 15 min. After centrifugation, supernatant phase was transferred to a new microtube and mixed with isopropanol at the ratio of 1:1. After incubation for 10 min at room temperature and centrifugation at 12,000×g for 10 min, supernatant was discarded and RNA pellet was washed, followed by centrifugation at 12,000×g for 15 min. Following removal of ethanol, RNA pellet was suspended in DEPC-treated water and so that RNA pellet was dissolved at 55° C. for 10 min. Dissolved RNA pellet was kept at −20° C. for further experiments.
RT-PCR was performed to check specific mRNA expression in HepG2 cells.
Thirteen μg of RNA dissolved in DEPC— treated water and 2 μL of oligo (di) were added to PCR microtubes and denaturated at 70° C. for 5 min in a thermal cycler. Later, RT-PCR mastermix was added to microtubes to synthesize cDNA. Primers corresponding to specific RNA were bound to the synthesized cDNA, and gene amplification was carried out with the thermal cycler. The PCR products were electrophoresed on 1% agarose gel and bands of the respective primers were checked with UV.

HepG2 cells [5] = assay: Western blotting assay; conditions: HepG2 cells, 5, 10, 20 μM, 24 h, Western blot
Method: Western blotting assay was performed to investigate specific […] expression of HepG2 cells.
HepG2 cells were cultured at a density of 1×10^4 cells/ml in 10 cm^2 culture dishes for 24 h. The cells were then treated with different concentrations (5 μM, 10 μM, 20 μM) of stigmasterol and 5β-hydroxysitostanol for 24 h. The cells were lysed in cell lysis buffer to give protein extract. The extracted protein was separated by molecular weight using SDS electrophoresis. Corresponding antibodies were attached to intended protein and the protein bands were detected with ECL solution using LAS-3000 system.

SMILES | cytotoxicity at 24 h, 5 μM (MTT cell viability assay) [%] | cytotoxicity at 24 h, 10 μM (MTT cell viability assay) [%] | cytotoxicity at 24 h, 20 μM (MTT cell viability assay) [%] | cytotoxicity according to concentration (HepG2 cells [1]) | cell viability with increasing concentrations (HepG2 cells [1]) | shape of the attached HepG2 cells (HepG2 cells [2]) | nuclei of the attached HepG2 cells (HepG2 cells [2]) | number of attached cells (living cells) (HepG2 cells [2]) | G2/M phase of the cell cycle as the concentration increased (HepG2 cells [3]) | G2/M phase of the cell cycle (HepG2 cells [3]) [%] | expression of caspase-8, Bax and FASL (HepG2 cells [4]) | expression of cell apoptosis inducing factors caspase-8, 9 (HepG2 cells [5]) | cytotoxicity at 24 h, 5 μM (MTT cell viability assay; HepG2 cells, 5 μM, 24 h, MTT, read-out: inhibition of cell viability (rate)) [%] | cytotoxicity at 24 h, 10 μM (MTT cell viability assay; HepG2 cells, 10 μM, 24 h, MTT, read-out: inhibition of cell viability (rate)) [%] | cytotoxicity at 24 h, 20 μM (MTT cell viability assay; HepG2 cells, 20 μM, 24 h, MTT, read-out: inhibition of cell viability (rate)) [%] | expression of cell apoptosis inducing factors caspase-8, 9, Bax, p53, p21, FAS and FASL (HepG2 cells [4]) | expression of cell apoptosis inhibiting factors Bcl-2 and XIAP (HepG2 cells [4])
CCC(CCC(C)C1CCC2C3CCC4(O)CC(O)CCC4(C)C3CCC12C)C(C)C (stereo not drawn) [5β-hydroxysitostanol] | ~6 | ~9 | ~15 | no cytotoxicity | dose-dependent decrease | shrinkage | significantly condensed | remarkably reduced | increased | 25.83 | upregulates | upregulate |  |  |  |  | 
CC[C@H](/C=C/[C@@H](C)[C@H]1CC[C@H]2[C@@H]3CC=C4C[C@@H](O)CC[C@]4(C)[C@H]3CC[C@]12C)C(C)C [stigmasterol] |  |  |  |  | dose-dependent decrease | shrinkage | significantly condensed | remarkably reduced | increased | 26.87 |  | upregulate | ~40 | ~43 | ~54 | upregulates | downregulates
